The values below come from paper PMC10135050, “Neutralizing Carbapenem Resistance by Co-Administering Meropenem with Novel β-Lactam-Metallo-β-Lactamase Inhibitors” (Antibiotics, 2023).

For series [1], the target named is T1, Recombinant human glyoxylase II (Glo2) (Homo sapiens, UniProt Q16775).
T1 construct: purchased BioVision Inc., Waltham, MA, USA
Kind of series: Non-specific binding to zinc in non-MBLs, glyoxylase II activity. The format is biochemical. The following applies: concentrations up to 500 µM. An excerpt: Metal chelators are known to suffer from off-target specificity and as a result have been criticized as potential MBLIs in vivo [44].
The methodology has been previously described. EDTA (purchased from Merck KGaA, Darmstadt, Germany) was included as a positive control.

Series [2] has as its target T2, VIM-2 (Escherichia coli, UniProt Q5U7L7).
T2 construct: purchased RayBiotech (RayBiotech Life Inc., Peachtree Corners, GA, USA)
Kind of series: Enzyme inhibition kinetics (nitrocefin). The format is biochemical. Here is the method: (§1) The IC50 was calculated from the generated sigmoidal curves (Figure S1) using GraphPad Prism software version 8.0.2 (GraphPad Inc., San Diego, CA, USA), and the Ki app was calculated using the Cheng–Prusoff equation [43]. […] However, we expect that inhibitors that remove one Zn atom from the enzyme active site will be slow-acting irreversible inhibitors that would require a more detailed kinetic analysis than used here. […] Structurally, BP2 is a thiazole-containing compound, while BP1 lacks this moiety. It is unclear whether the increased inhibition activity is due to the longer distance between the chelator moiety and the lactam moiety, which is less likely to sterically hinder the chelator, or if it is the thiazole itself that boosts the interaction efficacy of the compound.
(§2) A dose-dependent enzyme inhibition assay was performed using a Biotek PowerWave XS2 (Biotek Instruments Inc., Winooski, VT, USA) plate reader. NDM-1 and VIM-2 enzymes were purchased from RayBiotech (RayBiotech Life Inc., Peachtree Corners, GA, USA). Enzymes in the quantity of 1 nM (NDM-1) or 0.5 nM (VIM-2) were used in this study with a fixed nitrocefin concentration of either 120 µM (NDM-1) or 50 µM (VIM-2) and varying BP2 concentrations ranging from 5 to 200 µM (NDM-1) and 2.5 to 300 µM (VIM-2) in 50 mM HEPES buffer supplemented with 100 µg/mL BSA and 10 µM ZnCl2. Inhibition was measured at 482 nm at 25 °C.

Series [3] concerns the target T3, NDM-1 (Klebsiella pneumoniae, UniProt C7C422).
T3 construct: purchased RayBiotech (RayBiotech Life Inc., Peachtree Corners, GA, USA)
As to the kind of experiment: Enzyme inhibition kinetics (nitrocefin). The format is biochemical. As to the method: as §1, §2

The subject of series [4] is Klebsiella pneumoniae TWA (IMP-8). As to the kind of experiment: MIC, broth microdilution and checkerboard assay. The format is cell-based. As to the method:
(§3) The Minimum Inhibitory Concentration (MIC) of meropenem BP2 was determined utilizing the broth microdilution assay, as described by the Clinical and Laboratory Standards Institute (CLSI) antimicrobial susceptibility guidelines. The mono-therapeutic effect of each antibiotic and MBLI was evaluated across a panel of MBL-producing Enterobacterales.
(§4) The drug susceptibility profile of meropenem in combination with BP2 was studied using the checkerboard assay. This assay was used to ascertain the effect of two drugs on antimicrobial resistance targeting CRE strains. The assay was performed according to the protocol described previously and was under CLSI antimicrobial susceptibility guidelines. Briefly, twofold dilutions of meropenem with each chelator were made in Cation-adjusted Mueller Hinton Broth (CAMHB) in a 96-well microtiter plate. A 0.5 McFarland-standardized bacterial inoculum was added to each well to obtain a final volume of 100 µL per well. Thereafter, plates were incubated at 37 °C for 18 h under aerobic conditions. The checkerboard assays were performed in triplicate. The MIC was determined as the lowest concentration at which no visible growth was present. The fractional inhibitory concentration index (FICI) was calculated for each combination according to the equation FICI = FICa (MIC of drug A in combination/MIC of drug A alone) + FICb (MIC of drug B in combination/MIC of drug B alone). The FICI was interpreted as follows: synergy, FICI ≤ 0.5; additive 0.5–1; indifference, […] FICI < 4; and antagonism, FICI ≥ 4 [61].

Series [5] relates to Enterobacter cloacae TWA (IMP-8). As to the kind of experiment: MIC, broth microdilution and checkerboard assay. It counts as cell-based. Here is the method: as §3, §4
(In general: Broth dilution looks for growth in wells or tubes with falling amounts of substance.)

In series [6] the test system is Escherichia coli TWA (IMP-8). Kind of series: MIC, broth microdilution and checkerboard assay. The format is cell-based. As to the method: as §3, §4
In series [7] the test system is Klebsiella pneumoniae 6852 (IMP-1). As to the kind of experiment: MIC, broth microdilution and checkerboard assay. It counts as cell-based. Here is the method:
as §3, §4

Series [8] concerns Serratia marcescens (IMP-11). As to the kind of experiment: MIC, broth microdilution and checkerboard assay. The format is cell-based. Here is the method: as §3, §4
In series [9] the test system is Klebsiella pneumoniae ENNES (VIM-1). As to the kind of experiment: MIC, broth microdilution and checkerboard assay. It counts as cell-based. As to the method: as §3, §4
Series [10] deals with Escherichia coli JAP (IMP-1). As to the kind of experiment: MIC, broth microdilution and checkerboard assay. It counts as cell-based. Here is the method:
as §3, §4

Series [11] concerns Enterobacter cloacae BM 5 (IMP-1). Kind of series: MIC, broth microdilution and checkerboard assay. It counts as cell-based. As to the method:
as §3, §4

Series [12] deals with Escherichia coli FEK (NDM-4). As to the kind of experiment: MIC, broth microdilution and checkerboard assay. The format is cell-based. As to the method:
as §3, §4

The subject of series [13] is Providencia stuartii PSTU (NDM-1). As to the kind of experiment: MIC, broth microdilution and checkerboard assay. The format is cell-based. Here is the method: as §3, §4
Series [14] relates to HepG2 cells. As to the kind of experiment: MTT cell viability assay. It counts as cell-based, human. Here is the method:
(§5) HepG2 cells were cultured in 25 mL cell culture flasks using Eagle’s minimum essentials medium (EMEM) supplemented with 10% fetal bovine serum, 1% pen-strep-fungizone and 1% L-glutamine, maintained in a humidified incubator (37 °C, 5% CO2) until approximately 80% confluence.
(§6) The MTT assay was one of the methods used to determine in vitro cell viability of BP on HepG2 cells. HepG2 cells (15,000 cells/well) were seeded into a 96-well microtiter plate and allowed to adhere overnight (37 °C, 5% CO2). Thereafter, the cells were incubated (37 °C, 5% CO2) with a range of BP concentrations (0, 1, 8, 10, 50, 100 and 200 μg/mL) in triplicate for 6 h. After the 6 h incubation, the cells were washed with 0.1 M phosphate-buffered saline (PBS) and incubated with MTT salt solution (5 mg/mL in 0.1 M PBS) and 100 μL CCM for 4 h (37 °C, 5% CO2). The MTT salt solution was removed, and DMSO (100 μL/well) was added and incubated for 1 h. The optical density was measured using a spectrophotometer (Bio-Tek μQuant) at 570/690 nm. Results are expressed as % cell viability versus BP2 concentration (μg/mL).
In general terms: Tetrazolium assays rely on reduction of a dye to a coloured formazan, in cell work by metabolically active cells.

Series [15] is described as follows: MTT cell viability assay. The format is cell-based, human. The following applies: human, HepG2 cells, 6 h, read-out: IC50 cytotoxicity. Here is the method:
as §5, §6

Converted amounts (≈) assume the structure as drawn. “Also recorded” adds a separate entry of the source. Read-outs that look alike come from different tables or passages of the source.

T3 sequence (C7C422 29-270, looked up, species assumed): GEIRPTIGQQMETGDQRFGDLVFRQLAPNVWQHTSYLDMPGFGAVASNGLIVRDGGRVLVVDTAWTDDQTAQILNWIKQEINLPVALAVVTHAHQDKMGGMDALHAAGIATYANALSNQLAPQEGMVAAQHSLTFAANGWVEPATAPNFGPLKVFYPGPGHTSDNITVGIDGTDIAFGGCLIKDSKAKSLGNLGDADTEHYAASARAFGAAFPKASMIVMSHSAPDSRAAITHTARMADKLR

For the compound `CON=C(C(=O)NC1C(=O)N2C(C(=O)O)=C(COC(C)=O)CSC12)c1csc(NC(=O)CC(C(=O)OC)N2CCN(CC(=O)O)CCN(CC(=O)O)CC2)n1` (stereo in doubt) [BP2], the “Glyoxylase II activity” value in series [1] was “did not reduce the activity; also recorded: did not interact”. Further, the IC50 in series [2] (VIM-2 0.5 nM, nitrocefin 50 µM, mean ± SD) was 57.1 ± 2.9 µM; in series [3] (NDM-1 1 nM, nitrocefin 120 µM, mean ± SD), 70.7 ± 4.5 µM. Moreover, the Ki in series [2] (VIM-2, Cheng–Prusoff equation, read-out: Ki app) was 30.9 µM; in [3] (NDM-1, Cheng–Prusoff equation, read-out: Ki app) it was 35.3 µM. Further, the minimum inhibitory concentration (MIC) in series [4] (read-out: MIC BP2 Alone), in [5] (read-out: MIC BP2 Alone), in [6] (read-out: MIC BP2 Alone), in series [7] (read-out: MIC BP2 Alone), in series [8] (read-out: MIC BP2 Alone) and in [9] (read-out: MIC BP2 Alone) was above 256 µg/mL in each case. Moreover, the MIC in series [10] (read-out: MIC BP2 Alone), in series [11] (read-out: MIC BP2 Alone), in series [12] (read-out: MIC BP2 Alone) and in [13] (read-out: MIC BP2 Alone) was above 256 µg/mL in each case. For the same compound, the “Cell viability compared to the control” value in series [14] (1 µg/mL and 10 µg/mL) was “significantly increased”; in series [14] (200 µg/mL), “significant decrease”; in [14] (50–100 µg/mL) it was “not significantly altered”. The IC50 at 6 h in series [15] was determined as 62 µg/mL (≈ 76.3 µM).

`C[C@@H](O)[C@H]1C(=O)N2C(C(=O)O)=C(S[C@@H]3CN[C@H](C(=O)N(C)C)C3)[C@H](C)[C@H]12` [Meropenem]: the MIC in series [4] (K. pneumoniae TWA IMP-8, alone, read-out: MIC MEM Alone) is 8 µg/mL; in series [5] (E. cloacae TWA IMP-8, alone, read-out: MIC MEM Alone), 0.125 µg/mL; in [6] (E. coli TWA IMP-8, alone, read-out: MIC MEM Alone), 8 µg/mL; in series [7] (K. pneumoniae 6852 IMP-1, alone, read-out: MIC MEM Alone), above 32 µg/mL; in series [8] (S. marcescens IMP-11, alone, read-out: MIC MEM Alone), above 32 µg/mL; in series [9] (K. pneumoniae ENNES VIM-1, alone, read-out: MIC MEM Alone) it was above 32 µg/mL. In addition, the MIC in [10] (E. coli JAP IMP-1, alone, read-out: MIC MEM Alone) was 8 µg/mL; in [11] (read-out: MIC MEM Alone), above 32 µg/mL; in [12] (E. coli FEK NDM-4, alone, read-out: MIC MEM Alone) it was above 32 µg/mL; in series [13] (P. stuartii PSTU NDM-1, alone, read-out: MIC MEM Alone) it was 32 µg/mL.

Usually IC50 stands for the concentration at which inhibition is half-maximal. Usually MIC stands for the lowest concentration found to suppress growth.
